The target in one assay is S. cerevisiae Pma1 (Saccharomyces cerevisiae, UniProt P05030). The settings on record: read-out: IC50 Pma1, ATP hydrolysis assay; cited from earlier work.
The test system of the next assay is C. albicans. The settings on record: read-out: IC50 for C. albicans, previously reported value; cited from earlier work.
In another assay the test system is S. cerevisiae cells. The experiment in a line: Membrane potential and integrity assay, DiBAC4(3)/PI image cytometry. It is filed as cell-based, Saccharomyces cerevisiae. To be noted: for PI signal (membrane integrity), in words: compound 14 after 5 min, BM2 within 5 min; for PI signal (membrane integrity), in words / DiBAC4(3) signal (membrane depolarization), in words: compound 17 15 µM, 30 min (Fig. S1); for DiBAC4(3) signal (membrane depolarization), in words: compound 14 after 5 min of exposure. The method, then:
Cells were transferred from frozen stocks to 3 ml of YPD medium and grown overnight at 30°C and 150 rpm. The culture was diluted to an OD600 of 0.15 and grown for 3 to 4 h at 30°C and 150 rpm to an OD600 of 0.5 to 0.7. The cells were pelleted by centrifugation at 2,000 × g for 2 min and washed in buffer A (100 mM MOPS and 1 mM KCl adjusted to pH 7.0 with Trizma base). The washing procedure was repeated, and the cells were resuspended in buffer A to an OD600 of 0.2. Fifty microliters of buffer A containing 3.3 μg/ml propidium iodide (PI; catalog number P1304MP; Thermo Fisher Scientific) and 1 μg/ml DiBAC4(3) (catalog number D8189; Sigma-Aldrich) was mixed with 50 μl the S. cerevisiae cell suspension in buffer A and transferred to a 96-well plate with 1 μl of inhibitor in DMSO, and the components were mixed.
Approximately 30 μl sample was transferred to an A2 glass slide (ChemoMetec, Allerod, Denmark), and the slide was incubated at 30°C before the cells were counted on a NucleoCounter NC-3000 cytometer (ChemoMetec). Five thousand cells were counted per experiment with an exposure time of 1,000 ms. A dark field was used as the masking channel to select the yeast cells. The DiBAC4(3) channel (excitation, 530 nm; emission, 675/75 nm) and the PI channel (excitation, 630 nm; emission, 740/60 nm) were used to measure the membrane potential and membrane integrity, respectively. To account for the fluorescent spillover from the PI channel to the DiBAC4(3) channel, 15% compensation was applied. In all experiments, 1.9% compensation was used to compensate for the DiBAC4(3)-to-PI spillover. The results were analyzed using NucleoView software (ChemoMetec). Only cells with a pixel size of 10 to 40 were included in the analysis, thus avoiding analysis of noncell artifacts. Carbonyl cyanide m-chlorophenylhydrazone (CCCP) was used as a positive control for decreased membrane potential, and lysis buffer was used to validate lost membrane integrity.

Where [1] appears, read: 30 min of exposure, 15 μM (Fig. 4C).

We go through four compounds from article PMC5487681, “Identification of Antifungal H^+-ATPase Inhibitors with Effect on Plasma Membrane Potential” (Antimicrobial Agents and Chemotherapy, 2017).

Residues, ends and D or L forms follow the SMILES beside them.

Sequence of S. cerevisiae Pma1 (P05030 whole entry): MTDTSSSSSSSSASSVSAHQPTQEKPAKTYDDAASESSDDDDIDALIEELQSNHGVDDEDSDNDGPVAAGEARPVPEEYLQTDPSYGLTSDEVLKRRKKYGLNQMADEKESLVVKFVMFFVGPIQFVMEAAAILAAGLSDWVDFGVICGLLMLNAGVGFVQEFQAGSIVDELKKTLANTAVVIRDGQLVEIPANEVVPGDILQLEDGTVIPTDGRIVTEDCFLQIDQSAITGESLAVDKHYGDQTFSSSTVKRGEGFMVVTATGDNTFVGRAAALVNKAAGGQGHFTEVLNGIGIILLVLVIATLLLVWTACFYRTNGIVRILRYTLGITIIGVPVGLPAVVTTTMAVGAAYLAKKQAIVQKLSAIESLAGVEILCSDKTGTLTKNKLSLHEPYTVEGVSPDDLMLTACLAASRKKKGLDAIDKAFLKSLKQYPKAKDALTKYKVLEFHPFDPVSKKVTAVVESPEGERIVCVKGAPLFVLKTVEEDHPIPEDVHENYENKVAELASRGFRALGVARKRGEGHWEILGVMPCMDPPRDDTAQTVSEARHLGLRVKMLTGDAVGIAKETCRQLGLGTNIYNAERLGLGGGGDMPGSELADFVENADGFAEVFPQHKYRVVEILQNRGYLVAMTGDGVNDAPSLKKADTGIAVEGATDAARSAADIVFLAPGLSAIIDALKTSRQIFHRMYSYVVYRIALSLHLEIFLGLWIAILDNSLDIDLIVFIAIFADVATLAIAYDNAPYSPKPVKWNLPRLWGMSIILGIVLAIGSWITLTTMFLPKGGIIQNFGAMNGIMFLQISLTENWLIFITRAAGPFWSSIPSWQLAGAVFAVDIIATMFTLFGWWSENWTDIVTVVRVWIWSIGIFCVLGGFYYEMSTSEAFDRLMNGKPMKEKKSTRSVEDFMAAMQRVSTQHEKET

For orientation: IC50 means the point on the concentration scale where inhibition reaches its midpoint. In the case of `N=C(N)NCCC[C@@H](N)C(=O)N[C@H](CCCNC(=N)N)C(=O)N[C@H](CCCNC(=N)N)C(=O)N[C@H](Cc1ccccc1)C(=O)N[C@H](Cc1c[nH]c2ccccc12)C(=O)N[C@H](Cc1c[nH]c2ccccc12)C(=O)N[C@H](Cc1ccccc1)C(=O)N[C@H](CCCNC(=N)N)C(=O)N[C@H](CCCNC(=N)N)C(=O)N[C@H](CCCNC(=N)N)C(N)=O` [BM2, reference compound] (HELM PEPTIDE1{[dR].[dR].[dR].[dF].[dW].[dW].[dF].[dR].[dR].[dR].[am]}$$$$V2.0), at S. cerevisiae Pma1, the 50% inhibitory concentration (IC50) is 0.5 µM.
Turning to `O=c1c2ccccc2[se]n1-c1ccccc1` [Ebselen, reference compound], the IC50 in the assay with C. albicans is 14 µM.
Regarding `CCc1nc2sc3c(NCCCN(C)C)ncnc3c2c2c1CCCC2` [Compound 17], in the assay with S. cerevisiae cells, the “PI signal (membrane integrity), in words” value is reported as “not significantly increased” and the “DiBAC4(3) signal (membrane depolarization), in words” value is “did not increase”.
Regarding `CCCCc1nc2sc3c(NCCCN(C)C)ncnc3c2c2c1CCCC2` [Compound 14], in the assay on S. cerevisiae cells (setting [1]), the “Cells DiBAC4(3) positive and PI negative” value is given as 44%; the “Cells PI positive but DiBAC4(3) negative” value stood at 0.7%; the “Cells both PI and DiBAC4(3) negative” value is 16%; the “Cells both PI and DiBAC4(3) positive” value is reported as 39%. In the assay on S. cerevisiae cells, the “PI signal (membrane integrity), in words” value is “minimal increase” and the “DiBAC4(3) signal (membrane depolarization), in words” value was “elevated”.
